Assays:
[1] = target: c-kit mutant D816V (Homo sapiens (Human), UniProt P10721, D816V/DEL694-753); assay: c-Kit mutant D816V biochemical assay (AlphaScreen kinase activity)
Method in brief: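 Recombinant His-tagged c-Kit D816V kinase domain (residues 551-934, insert 694-753 deleted, E. coli-expressed) phosphorylating 30 nM biotin-(E4Y)10 with 10 μM ATP, HEPES pH 7.2, Mg/Mn, 5% DMSO; 30 min, room temperature. Phosphorylation detected by AlphaScreen (streptavidin donor/PY30 acceptor beads); IC50 from 8-point 1:3 series.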

[2] = tested on: BaF3-FL KIT D816V or BaF3-FL KIT V560G/D816V cell line; assay: Cell-based assays of c-Kit mutant kinase activity (cell proliferation, ATPlite); settings: at least one of the c-kit cell assays of Example 7
Method in brief: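 BaF3 cells dependent on transfected full-length human KIT D816V or V560G/D816V (pCI-Neo, CMV promoter) were seeded at 1×10^4 cells/well and exposed to 8-point 1:3 dilutions from 10 μM top (0.2% DMSO) for three days at 37° C. ATPlite luminescence gave cell number; IC50 from concentration-response.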

Chain of c-kit mutant D816V (P10721 other isoform, or with tags, fused parts or gaps D816V/del 694-753): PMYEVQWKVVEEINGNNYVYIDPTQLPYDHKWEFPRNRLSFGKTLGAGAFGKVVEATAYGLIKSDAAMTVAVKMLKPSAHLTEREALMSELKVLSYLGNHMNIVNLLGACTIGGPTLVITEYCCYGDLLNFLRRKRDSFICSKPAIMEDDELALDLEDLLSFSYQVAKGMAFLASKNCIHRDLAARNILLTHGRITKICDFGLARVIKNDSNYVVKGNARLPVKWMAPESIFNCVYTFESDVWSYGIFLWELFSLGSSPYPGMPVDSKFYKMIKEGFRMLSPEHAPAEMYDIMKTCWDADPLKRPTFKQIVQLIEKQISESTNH

| Structure (SMILES) | IC50 [1] [µM] | IC50 [2] [nM] |
| --- | --- | --- |
| CC(=O)Nc1cccc(-c2cc3c(N4CCC(c5nc(C)c(-c6ccccc6)[nH]5)CC4)ncnc3[nH]2)c1 [P-3071, N-[3-[4-[4-(4-methyl-5-phenyl-1H-imidazol-2-yl)-1-piperidyl]-7H-pyrrolo[2,3-d]pyrimidin-6-yl]phenyl]acetamide] | 0.0001 to 1 | < 10000 |
| COc1ccc(-c2cc3c(N4CCC(c5nc(C)c(-c6ccccc6)[nH]5)CC4)ncnc3[nH]2)cn1 [P-3072, 6-(6-methoxy-3-pyridyl)-4-[4-(4-methyl-5-phenyl-1H-imidazol-2-yl)-1-piperidyl]-7H-pyrrolo[2,3-d]pyrimidine] | 0.0001 to 1 | < 10000 |
| Cc1nn(C)cc1-c1cc2c(N3CCC(c4nc(C)c(-c5ccccc5)[nH]4)CC3)ncnc2[nH]1 [P-3073, 6-(1,3-dimethylpyrazol-4-yl)-4-[4-(4-methyl-5-phenyl-1H-imidazol-2-yl)-1-piperidyl]-7H-pyrrolo[2,3-d]pyrimidine] | 0.0001 to 1 | < 10000 |
| Cc1ccc(-c2cc3c(N4CCC(c5nc(C)c(-c6ccccc6)[nH]5)CC4)ncnc3[nH]2)cn1 [P-3074, 4-[4-(4-methyl-5-phenyl-1H-imidazol-2-yl)-1-piperidyl]-6-(6-methyl-3-pyridyl)-7H-pyrrolo[2,3-d]pyrimidine] | 0.0001 to 1 | < 10000 |
| CCOc1cc(-c2cc3c(N4CCC(c5nc(C)c(-c6ccccc6)[nH]5)CC4)ncnc3[nH]2)ccn1 [P-3075, 6-(2-ethoxy-4-pyridyl)-4-[4-(4-methyl-5-phenyl-1H-imidazol-2-yl)-1-piperidyl]-7H-pyrrolo[2,3-d]pyrimidine] | 0.0001 to 1 | < 10000 |
| Cc1nc(C2CCN(c3ncnc4[nH]c(-c5ccnc(N6CCOCC6)c5)cc34)CC2)[nH]c1-c1ccccc1 [P-3076, 4-[4-[4-[4-(4-methyl-5-phenyl-1H-imidazol-2-yl)-1-piperidyl]-7H-pyrrolo[2,3-d]pyrimidin-6-yl]-2-pyridyl]morpholine] | 0.0001 to 1 | < 10000 |
| Cc1nc(C2CCN(c3ncnc4[nH]c(-c5ccnc(N6CCC(C)CC6)c5)cc34)CC2)[nH]c1-c1ccccc1 [P-3077, 4-[4-(4-methyl-5-phenyl-1H-imidazol-2-yl)-1-piperidyl]-6-[2-(4-methyl-1-piperidyl)-4-pyridyl]-7H-pyrrolo[2,3-d]pyrimidine] | 0.0001 to 1 | < 10000 |
| Cc1nc(C2CCN(c3ncnc4[nH]c(-c5ccnc(OC(C)C)c5)cc34)CC2)[nH]c1-c1ccccc1 [P-3078, 6-(2-isopropoxy-4-pyridyl)-4-[4-(4-methyl-5-phenyl-1H-imidazol-2-yl)-1-piperidyl]-7H-pyrrolo[2,3-d]pyrimidine] | 0.0001 to 1 | < 10000 |
| Cc1nc(C2CCN(c3ncnc4[nH]c(-c5ccnc(N6CCCC6)c5)cc34)CC2)[nH]c1-c1ccccc1 [P-3079, 4-[4-(4-methyl-5-phenyl-1H-imidazol-2-yl)-1-piperidyl]-6-(2-pyrrolidin-1-yl-4-pyridyl)-7H-pyrrolo[2,3-d]pyrimidine] | 0.0001 to 1 | < 10000 |
| Cc1nc(C2CCN(c3ncnc4[nH]c(-c5cccc(OC(F)(F)F)c5)cc34)CC2)[nH]c1-c1ccccc1 [P-3080, 4-[4-(4-methyl-5-phenyl-1H-imidazol-2-yl)-1-piperidyl]-6-[3-(trifluoromethoxy)phenyl]-7H-pyrrolo[2,3-d]pyrimidine] | 0.0001 to 1 | < 10000 |
| Cc1nc(C2CCN(c3ncnc4[nH]c(-c5cccc(F)c5)cc34)CC2)[nH]c1-c1ccccc1 [P-3081, 6-(3-fluorophenyl)-4-[4-(4-methyl-5-phenyl-1H-imidazol-2-yl)-1-piperidyl]-7H-pyrrolo[2,3-d]pyrimidine] | 0.0001 to 1 | < 10000 |
| Cc1nc(C2CCN(c3ncnc4[nH]c(-c5cccc(NS(C)(=O)=O)c5)cc34)CC2)[nH]c1-c1ccccc1 [P-3083, N-[3-[4-[4-(4-methyl-5-phenyl-1H-imidazol-2-yl)-1-piperidyl]-7H-pyrrolo[2,3-d]pyrimidin-6-yl]phenyl]methane sulfonamide] | 0.0001 to 1 | < 10000 |
| Cc1nc(C2CCN(c3ncnc4[nH]c(-c5ccc(F)cc5)cc34)CC2)[nH]c1-c1ccc2c(c1)OCCO2 [P-3084, 4-[4-[5-(2,3-dihydro-1,4-benzodioxin-6-yl)-4-methyl-1H-imidazol-2-yl]-1-piperidyl]-6-(4-fluorophenyl)-7H-pyrrolo[2,3-d]pyrimidine] | 0.0001 to 1 | < 10000 |
| Cc1nc(C2CCN(c3ncnc4[nH]c(-c5ccc(F)cc5)cc34)CC2)[nH]c1-c1ccc(OC(F)(F)F)cc1 [P-3085, 6-(4-fluorophenyl)-4-[4-[4-methyl-5-[4-(trifluoromethoxy)phenyl]-1H-imidazol-2-yl]-1-piperidyl]-7H-pyrrolo[2,3-d]pyrimidine] | 0.0001 to 1 | < 10000 |
| Cc1nc(C2CCN(c3ncnc4[nH]c(-c5ccc(C#N)cc5)cc34)CC2)[nH]c1-c1ccc(OC(F)(F)F)cc1 [P-3086, 4-[4-[4-[4-methyl-5-[4-(trifluoromethoxy)phenyl]-1H-imidazol-2-yl]-1-piperidyl]-7H-pyrrolo[2,3-d]pyrimidin-6-yl]benzonitrile] | 0.0001 to 1 | < 10000 |
| COc1cc(-c2cc3c(N4CCC(c5nc(C)c(-c6ccc(OC(F)(F)F)cc6)[nH]5)CC4)ncnc3[nH]2)ccn1 [P-3087, 6-(2-methoxy-4-pyridyl)-4-[4-[4-methyl-5-[4-(trifluoromethoxy)phenyl]-1H-imidazol-2-yl]-1-piperidyl]-7H-pyrrolo[2,3-d]pyrimidine] | 0.0001 to 1 | < 10000 |
| COc1cc(-c2cc3c(N4CCC(c5nc(C)c(-c6ccc(C)cc6)[nH]5)CC4)ncnc3[nH]2)ccn1 [P-3088, 6-(2-methoxy-4-pyridyl)-4-[4-[4-methyl-5-(p-tolyl)-1H-imidazol-2-yl]-1-piperidyl]-7H-pyrrolo[2,3-d]pyrimidine] | 0.0001 to 1 | < 10000 |
| COc1ccc(-c2[nH]c(C3(C)CCN(c4ncnc5[nH]c(-c6ccc(C#N)nc6)cc45)CC3)nc2C)cc1C [P-3250, 5-[4-[4-[5-(4-methoxy-3-methyl-phenyl)-4-methyl-1H-imidazol-2-yl]-4-methyl-1-piperidyl]-7H-pyrrolo[2,3-d]pyrimidin-6-yl]pyridine-2-carbonitrile] | 0.0001 to 1 | < 10000 |
| CCOc1ccc(-c2[nH]c(C3(C)CCN(c4ncnc5[nH]c(-c6ccc(C#N)nc6)cc45)CC3)nc2C)cc1 [P-3251, 5-[4-[4-[5-(4-ethoxyphenyl)-4-methyl-1H-imidazol-2-yl]-4-methyl-1-piperidyl]-7H-pyrrolo[2,3-d]pyrimidin-6-yl]pyridine-2-carbonitrile] | 0.0001 to 1 | < 10000 |
| Cc1nc(C2(C)CCN(c3ncnc4[nH]c(-c5ccc(NS(C)(=O)=O)cc5)cc34)CC2)[nH]c1-c1ccc(C(F)F)cc1 [P-3252, N-[4-[4-[4-[5-[4-(difluoromethyl)phenyl]-4-methyl-1H-imidazol-2-yl]-4-methyl-1-piperidyl]-7H-pyrrolo[2,3-d]pyrimidin-6-yl]phenyl]methanesulfonamide] | 0.0001 to 1 | < 10000 |
| Cc1nc(C2(C)CCN(c3ncnc4[nH]c(-c5ccc(C(N)=O)cc5)cc34)CC2)[nH]c1-c1ccc(OC(F)F)cc1 [P-3253, 4-[4-[4-[5-[4-(difluoromethoxy)phenyl]-4-methyl-1H-imidazol-2-yl]-4-methyl-1-piperidyl]-7H-pyrrolo[2,3-d]pyrimidin-6-yl]benzamide] | 0.0001 to 1 | < 10000 |
| Cc1nc(C2(C)CCN(c3ncnc4[nH]c(-c5ccc(NS(C)(=O)=O)cc5)cc34)CC2)[nH]c1-c1ccc(OC(F)F)cc1 [P-3254, N-[4-[4-[4-[5-[4-(difluoromethoxy)phenyl]-4-methyl-1H-imidazol-2-yl]-4-methyl-1-piperidyl]-7H-pyrrolo[2,3-d]pyrimidin-6-yl]phenyl]methanesulfonamide] | 0.0001 to 1 | < 10000 |
| Cc1nc(C2(C)CCN(c3ncnc4[nH]c(-c5ccc(C#N)nc5)cc34)CC2)[nH]c1-c1cccc(OC(F)F)c1 [P-3255, 5-[4-[4-[5-[3-(difluoromethoxy)phenyl]-4-methyl-1H-imidazol-2-yl]-4-methyl-1-piperidyl]-7H-pyrrolo[2,3-d]pyrimidin-6-yl]pyridine-2-carbonitrile] | 0.0001 to 1 | < 10000 |
| COc1cccc(-c2[nH]c(C3(C)CCN(c4ncnc5[nH]c(-c6ccc(C#N)nc6)cc45)CC3)nc2C)c1 [P-3256, 5-[4-[4-[5-(3-methoxyphenyl)-4-methyl-1H-imidazol-2-yl]-4-methyl-1-piperidyl]-7H-pyrrolo[2,3-d]pyrimidin-6-yl]pyridine-2-carbonitrile] | 0.0001 to 1 | < 10000 |
